The text below walks through data of US5292752A, “Antithrombotic compounds” (Merrell Dow Pharmaceuticals Inc., priority 1992, dated 1994).

The term IC50 denotes the concentration needed to halve the response being measured. By ED50 is commonly meant the dose that gives a 50% effect, or the effect in half of the subjects.

In experiment [1] the target is T1, 5HT2 receptor (Rattus norvegicus, UniProt P14842).
T1 construct: from tissue
In words: [3H] spiroperidol binding test. The text has this:
In this test, 5HT2 receptors are exposed to both [^3 H] spiroperidol, (a substance known to have a specific affinity for the receptor) and the test compound. The extent to which there is a decrease in binding of the [^3 H] spiroperidol to the receptor is indicative of the affinity of the test compound for the 5HT2 receptor.
1-(4-Fluorophenyl)-2-[4-[(4-methanesulfonamidophenyl)carbonyl]-1-piperidinyl]-ethanone (Compound #1) and 1-(4-fluorophenyl)-2-[4-[(4-acetamidophenyl)carbonyl]-1-piperidinyl]-ethanone (Compound #2) were tested in this procedure. For comparative purposes, 1-(3-pyridyl)-2-[4 -[(4-methanesulfonamidophenyl)carbonyl]-1-piperidinyl]ethanone (Compound #3) and N-[4-[[1-[2-(4-fluoro phenyl)ethyl]-4-piperidne]carbenyl]phenyl] methane sulfononamide (compound #4) were also tested. Compound #4 was described in European Application 0 320 983, supra, as Example Number 8 and was prepared in that manner.

Experiment [2] concerns the target T2, 5HT2 receptor (Mus musculus, UniProt P35363).
T2 construct: from tissue; host or cells: whole living mouse (endogenous receptor of the brain)
In words: 5-DMT head twitch test. The class given is in vivo. The settings on record: ip, mice, 5-DMT induced head twitch, read-out: ED50 FOR ABOLITION OF HEAD TWITCH. The protocol: Psychopharmacol., Vol. 3, pages 89-92, (1979). The administration of 5-methoxy-N,N-dimethyltryptamine (DMT) to mice typically produces a characteristic head twitch in the mice. In this test, the mice are administered 5-DMT and a test compound. An absence of head twitches in the mice is considered to be predictive of the ability of the test compound to antagonize the 5HT2 receptor in vivo.

Experiment [3] concerns coronary vessel constriction. The settings on record: patients with stable angina; Golino et al., NEJM 1991; cited from earlier work.
A further experiment relates to thrombus formation. The note with it: canine models; Bush et al., Drug Development Research, Vol. 7 (1986); cited from earlier work.
In experiment [4] the test system is rabbit vascular smooth muscle cells. The settings on record: culture of rabbit vascular smooth muscle cells; Araki et al., Atherosclerosis, 83 (1990); cited from earlier work.
The subject of experiment [5] is phospholipase C mediated hydrolysis of phosphoinositides in rabbit vascular smooth muscle cells. The note with it: Araki et al.; cited from earlier work.

T2 sequence (P35363 whole entry): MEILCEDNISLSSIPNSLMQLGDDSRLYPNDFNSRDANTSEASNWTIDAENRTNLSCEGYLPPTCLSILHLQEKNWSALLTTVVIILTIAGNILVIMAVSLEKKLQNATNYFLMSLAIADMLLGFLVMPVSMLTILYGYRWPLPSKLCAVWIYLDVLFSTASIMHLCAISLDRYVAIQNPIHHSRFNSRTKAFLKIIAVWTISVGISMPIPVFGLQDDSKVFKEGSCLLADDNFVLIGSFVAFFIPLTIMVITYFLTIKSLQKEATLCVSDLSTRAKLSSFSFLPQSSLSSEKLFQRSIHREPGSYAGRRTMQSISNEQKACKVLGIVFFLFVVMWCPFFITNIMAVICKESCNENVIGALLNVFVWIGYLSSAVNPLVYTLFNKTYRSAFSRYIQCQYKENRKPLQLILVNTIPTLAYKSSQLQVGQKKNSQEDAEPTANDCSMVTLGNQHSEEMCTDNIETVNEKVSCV
T1 sequence (P14842 whole entry): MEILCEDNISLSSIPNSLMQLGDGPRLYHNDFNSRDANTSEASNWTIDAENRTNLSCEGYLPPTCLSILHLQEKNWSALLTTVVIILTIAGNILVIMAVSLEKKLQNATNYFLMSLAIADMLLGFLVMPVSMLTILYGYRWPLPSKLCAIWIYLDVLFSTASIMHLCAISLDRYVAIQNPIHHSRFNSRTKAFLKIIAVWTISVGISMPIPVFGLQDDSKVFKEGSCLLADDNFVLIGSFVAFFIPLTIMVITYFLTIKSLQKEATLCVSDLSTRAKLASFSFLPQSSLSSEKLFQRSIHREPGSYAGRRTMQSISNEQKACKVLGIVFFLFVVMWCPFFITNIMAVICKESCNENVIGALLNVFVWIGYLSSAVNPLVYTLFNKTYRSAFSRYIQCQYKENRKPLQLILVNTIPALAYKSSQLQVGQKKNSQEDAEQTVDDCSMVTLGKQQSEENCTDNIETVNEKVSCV

With `CS(=O)(=O)Nc1ccc(C(=O)C2CCN(CCc3ccc(F)cc3)CC2)cc1` [Compound #4, N-[4-[[1-[2-(4-fluorophenyl)ethyl]-4-piperidne]carbenyl]phenyl] methane sulfononamide], on 5HT2 receptor [1], the IC50 stood at 100 nM. The ED50 on 5HT2 receptor [2] came out at 0.49 mg/kg.
Take `O=C(c1ccc(F)cc1)C1CCN(CCn2c(=O)[nH]c3ccccc3c2=O)CC1` [Ketanserin]: in experiment [3], the “block of coronary vessel constriction” value was “blocked coronary vessel constriction”. In addition, the “prevention of thrombus formation” value with thrombus formation was “extremely effective in preventing thrombus formation”. Also, the “inhibition of PDGF induced DNA synthesis” value in experiment [4] is listed as “inhibited PDGF induced DNA synthesis”. Besides, the “inhibition of phospholipase C mediated hydrolysis of phosphoinositides” value in experiment [5] is listed as “inhibited phospholipase C mediated hydrolysis of phosphoinositides”.
Regarding `CC(=O)Nc1ccc(C(=O)C2CCN(CC(=O)c3ccc(F)cc3)CC2)cc1` [Compound #2, 1-(4-fluorophenyl)-2-[4-[(4-acetamidophenyl)carbonyl]-1-piperidinyl]-ethanone], the 50% effective dose (ED50) on 5HT2 receptor [2] amounted to 0.051 mg/kg.
For `CS(=O)(=O)Nc1ccc(C(=O)C2CCN(CC(=O)c3cccnc3)CC2)cc1` [Compound #3, 1-(3-pyridyl)-2-[4-[(4-methanesulfonamidophenyl)carbonyl]-1-piperidinyl]-ethanone], at 5HT2 receptor [2], the ED50 was more than 200 mg/kg.
As to `CS(=O)(=O)Nc1ccc(C(=O)C2CCN(CC(=O)c3ccc(F)cc3)CC2)cc1` [Compound #1, 1-(4-Fluorophenyl)-2-[4-[(4-methanesulfonamidophenyl)carbonyl]-1-piperidinyl]-ethanone], the ED50 at 5HT2 receptor [2] came out at 0.034 mg/kg.
